Measurements taken from PubChem BioAssay (NCI).
“And” between values parts separate entries of the source, which are not always exact repeats. Equal values may be shown once.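 All cell lines were grown in 96-well plates and treated with compound for 48 hours. At the GI50, growth is halved. Definition used: TGI = concentration required for complete inhibition of growth.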

Tests used:
Assay in all cases: NCI-60 cell line screen, 48 h
A549 NSCLC = tested on: A549 NSCLC
KM12 colon = tested on: KM12 colon
CAKI-1 renal = tested on: CAKI-1 renal
OVCAR-5 ovarian = tested on: OVCAR-5 ovarian
HCT-15 colon = tested on: HCT-15 colon
OVCAR-4 ovarian = tested on: OVCAR-4 ovarian
MDA-MB-231 breast = tested on: MDA-MB-231 breast
786-0 renal = tested on: 786-0 renal
EKVX NSCLC = tested on: EKVX NSCLC
PC-3 prostate = tested on: PC-3 prostate

SMILES	GI50 (A549 NSCLC)	TGI (A549 NSCLC)	GI50 (KM12 colon)	TGI (KM12 colon)	GI50 (CAKI-1 renal)	TGI (CAKI-1 renal)	GI50 (OVCAR-5 ovarian)	TGI (OVCAR-5 ovarian)	GI50 (HCT-15 colon)	TGI (HCT-15 colon)	GI50 (OVCAR-4 ovarian)	TGI (OVCAR-4 ovarian)	GI50 (MDA-MB-231 breast)	TGI (MDA-MB-231 breast)	GI50 (786-0 renal)	TGI (786-0 renal)	GI50 (EKVX NSCLC)	TGI (EKVX NSCLC)	GI50 (PC-3 prostate)	TGI (PC-3 prostate)
NS(=O)(=O)c1cccc(-c2ccc3c(NC(=O)C4CC4)n[nH]c3c2)c1	> 25 µM	> 25 µM	11.3 µM	> 25 µM	> 25 µM	> 25 µM	> 25 µM	> 25 µM	> 25 µM	> 25 µM	16.7 µM	> 25 µM	25 µM	> 25 µM	24.3 µM	> 25 µM	> 25 µM	> 25 µM	15.6 µM	> 25 µM
O=S(=O)(NC1=NCCN1C(=S)SN1CCn2c1nsc2=S)c1cccc(OC(F)(F)F)c1	17.4 µM	44.8 µM	10.3 µM	24.5 µM	17.8 µM	43.5 µM	16.4 µM	30 µM	10.5 µM	22.4 µM	12.5 µM	27.9 µM	14.1 µM	35.4 µM	12 µM	27.1 µM	44 µM	> 100 µM	9.94 µM	26.4 µM
CC/C=C\C/C=C/C=C1/C(=O)C=C[C@@H]1C/C=C\CCCC(=O)OC	5.71 µM	52.6 µM	2.24 µM	6.59 µM	3.22 µM	10.7 µM	3.32 µM	11.1 µM	2.2 µM	7.89 µM	4.24 µM	17.3 µM	3.55 µM	11.3 µM	2.71 µM	6.91 µM	3.89 µM	20.1 µM	2.44 µM	7.1 µM
CC1(C)CC2=C(Sc3ccccc3N2)C(=O)C1C(=O)C(=O)Nc1cc(Cl)ccc1Cl (stereo not given)		> 100 µM		> 100 µM		> 100 µM		> 100 µM		> 100 µM		> 100 µM		> 100 µM		> 100 µM		> 100 µM		> 100 µM
COc1ccc2c(c1)C(=O)c1c-2c(N2CCNCC2)nc2ccccc12	3.3 µM	15.8 µM	2.01 µM	4.84 µM	11.5 µM	30.3 µM	14.4 µM	30.2 µM	3.44 µM	11.8 µM	9.93 µM	27.1 µM	3.21 µM	11.1 µM	3.17 µM	13.3 µM	4.65 µM	17.5 µM	0.267 µM	8.67 µM
CCN(CC)C(=S)SSC(=S)N(CC)CC	25 µM and 33 µM	> 71.9 µM and 146 µM	14.4 µM and 13.7 µM	30.7 µM and 28.2 µM	12.6 µM and 20.8 µM	26.3 µM and 77.9 µM	35.4 µM and 17.9 µM	> 56 µM and 32.6 µM	20.1 µM and 20.9 µM	> 56.6 µM and 59.8 µM	13.5 µM and 13 µM	28.9 µM and 26.4 µM	16.1 µM and 16.7 µM	32.5 µM and 34.3 µM	24.1 µM and 18.6 µM	> 56.2 µM and 39.7 µM	25.7 µM and 25.6 µM	84.6 µM and 73.3 µM	15.7 µM and 23.2 µM	41.2 µM and 72 µM
